Assays:
[1] = target: T1, UGT1A9 in human kidney microsomes (Homo sapiens, UniProt O60656); assay: Inhibition of furosemide glucuronidation; details: HKM
T1 sequence (O60656 26-530): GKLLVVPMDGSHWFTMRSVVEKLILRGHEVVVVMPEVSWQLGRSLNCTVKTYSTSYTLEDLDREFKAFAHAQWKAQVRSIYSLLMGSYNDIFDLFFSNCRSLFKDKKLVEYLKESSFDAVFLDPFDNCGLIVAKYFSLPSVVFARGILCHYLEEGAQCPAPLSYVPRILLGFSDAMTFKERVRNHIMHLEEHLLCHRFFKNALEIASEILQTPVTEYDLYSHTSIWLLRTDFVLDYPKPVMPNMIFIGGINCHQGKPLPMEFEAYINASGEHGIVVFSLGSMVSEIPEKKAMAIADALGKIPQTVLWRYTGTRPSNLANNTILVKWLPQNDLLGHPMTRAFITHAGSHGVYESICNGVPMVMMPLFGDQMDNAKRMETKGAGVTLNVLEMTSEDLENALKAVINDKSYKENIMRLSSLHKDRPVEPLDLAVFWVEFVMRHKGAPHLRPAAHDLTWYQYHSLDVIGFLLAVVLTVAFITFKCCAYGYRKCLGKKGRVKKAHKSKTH

[2] = target: T2, UGT1A9 (Homo sapiens, UniProt O60656); assay: Inhibition of propofol glucuronidation in rUGT1A9 microsomes; format: in vitro ADME
T2 sequence (O60656 26-530): T1 sequence (O60656 26-530)

[3] = target: T3, UGT1A9 in human liver microsomes (Homo sapiens, UniProt O60656); assay: biochemical; details: HLM
T3 sequence (O60656 26-530): T1 sequence (O60656 26-530)

[4] = target: T4, UGT2B15 (Homo sapiens, UniProt P54855); assay: Screening: inhibition of oxazepam glucuronidation in rUGT2B15 microsomes; format: in vitro ADME; details: 10 or 100 µM
T4 sequence (P54855 24-530): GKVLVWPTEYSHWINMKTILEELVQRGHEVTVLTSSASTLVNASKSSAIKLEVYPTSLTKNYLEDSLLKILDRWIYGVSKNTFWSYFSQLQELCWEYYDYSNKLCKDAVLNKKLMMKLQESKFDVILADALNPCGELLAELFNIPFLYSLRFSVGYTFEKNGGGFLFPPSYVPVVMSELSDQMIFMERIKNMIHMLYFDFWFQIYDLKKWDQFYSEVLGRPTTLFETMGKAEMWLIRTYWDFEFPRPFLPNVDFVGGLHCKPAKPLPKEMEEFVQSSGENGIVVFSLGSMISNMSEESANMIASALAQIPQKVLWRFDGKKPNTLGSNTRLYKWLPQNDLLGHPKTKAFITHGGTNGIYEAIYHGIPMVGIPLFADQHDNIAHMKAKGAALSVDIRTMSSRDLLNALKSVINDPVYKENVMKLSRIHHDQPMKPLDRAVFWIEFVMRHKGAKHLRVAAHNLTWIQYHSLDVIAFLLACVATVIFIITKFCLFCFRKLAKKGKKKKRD

[5] = target: T5, UGT2B17 (Homo sapiens, UniProt O75795); format: in vitro ADME; details: 100 µM; rUGT2B17 microsomes; dihydroexemestane; screening
T5 sequence (O75795 24-530): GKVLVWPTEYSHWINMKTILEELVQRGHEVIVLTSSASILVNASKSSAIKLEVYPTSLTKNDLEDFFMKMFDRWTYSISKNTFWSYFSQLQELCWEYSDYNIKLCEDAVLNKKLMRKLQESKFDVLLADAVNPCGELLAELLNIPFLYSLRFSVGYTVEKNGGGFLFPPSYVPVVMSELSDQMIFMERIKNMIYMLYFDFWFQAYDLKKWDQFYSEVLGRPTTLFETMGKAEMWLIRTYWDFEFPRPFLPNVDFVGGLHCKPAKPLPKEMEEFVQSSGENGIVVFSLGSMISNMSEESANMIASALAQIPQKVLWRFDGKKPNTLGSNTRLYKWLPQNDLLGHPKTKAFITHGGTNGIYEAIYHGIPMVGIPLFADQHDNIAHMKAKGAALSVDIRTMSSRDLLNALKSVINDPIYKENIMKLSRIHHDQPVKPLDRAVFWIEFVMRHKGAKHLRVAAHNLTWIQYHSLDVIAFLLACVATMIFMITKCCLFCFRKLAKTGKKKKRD

[6] = target: T2, UGT1A9; assay: Inhibition of furosemide glucuronidation in rUGT1A9 microsomes; format: in vitro ADME
[7] = target: T6, UGT2B7 (Homo sapiens, UniProt P16662); format: in vitro ADME; details: rUGT2B7 microsomes
T6 sequence (P16662 24-529): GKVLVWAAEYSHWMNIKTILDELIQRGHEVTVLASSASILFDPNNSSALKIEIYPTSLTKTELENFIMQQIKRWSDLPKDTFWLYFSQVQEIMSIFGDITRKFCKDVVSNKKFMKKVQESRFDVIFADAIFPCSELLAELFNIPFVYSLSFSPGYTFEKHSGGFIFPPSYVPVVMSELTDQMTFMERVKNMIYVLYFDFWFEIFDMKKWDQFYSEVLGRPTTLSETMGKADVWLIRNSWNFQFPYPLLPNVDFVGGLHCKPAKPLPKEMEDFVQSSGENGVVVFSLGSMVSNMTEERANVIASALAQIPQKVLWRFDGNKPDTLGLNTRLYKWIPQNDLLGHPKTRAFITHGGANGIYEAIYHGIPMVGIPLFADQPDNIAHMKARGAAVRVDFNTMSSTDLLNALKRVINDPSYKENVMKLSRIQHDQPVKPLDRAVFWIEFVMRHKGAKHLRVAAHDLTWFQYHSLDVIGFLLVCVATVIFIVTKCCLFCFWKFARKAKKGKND

[8] = target: T2, UGT1A9; assay: Inhibition of acetaminophen glucuronidation in rUGT1A9 microsomes; format: in vitro ADME; details: IC50, probe substrate acetaminophen
[9] = target: T1, UGT1A9 in human kidney microsomes; assay: Inhibition of propofol glucuronidation; details: HKM
[10] = IC50, probe substrate furosemide
[11] = IC50,u (binding-corrected IC50), probe substrate furosemide
[12] = IC50,u (binding-corrected IC50), probe substrate propofol

Row | Compound | IC50 [1, 10] [nM] | IC50 [1, 11] [nM] | inhibition vs control without cannabinoid ([2]; 10 µM, propofol, screening) [%] | IC50 ([2]; IC50, probe substrate propofol) [nM] | IC50 [2, 12] [nM] | IC50 ([3]; IC50, probe substrate propofol) [nM] | IC50 [3, 12] [nM] | inhibition in screening (in words) [4] | inhibition vs control without cannabinoid [5] [%] | IC50 [6, 10] [nM] | IC50 [6, 11] [nM] | inhibition vs control without cannabinoid ([7]; 10 µM, zidovudine, screening) [%] | IC50 [8] [nM] | IC50 ([9]; IC50, probe substrate propofol) [nM] | IC50 [9, 12] [nM] | inhibition in screening (in words) ([2]; 10 or 100 µM) | inhibition in screening (in words) ([7]; 10 or 100 µM)
1 | C=C(C)[C@@H]1CCC(C)=C[C@H]1c1c(O)cc(CCCCC)cc1O [CBD, cannabidiol] | 3600 ± 800 | 220 ± 49 | 91 | 3200 ± 520 | 120 ± 20 | 19000 ± 4600 | 1000 ± 240 | no significant inhibition | 43 | 2400 ± 660 | 90 ± 25 | 58 | 1900 ± 290 | 5500 ± 560 | 340 ± 35 | – | –
2 | CCCCCc1cc(O)c2c(c1)OC(C)(C)c1ccc(C)cc1-2 [CBN, cannabinol] | 15000 ± 770 | 1900 ± 92 | – | 6000 ± 750 | 510 ± 63 | 31000 ± 4100 | 2900 ± 380 | no significant inhibition | 34 | 9200 ± 2100 | 780 ± 180 | – | 6900 ± 540 | 7500 ± 1700 | 900 ± 200 | significant inhibition | significant inhibition

From paper PMC11022890 (Drug Metabolism and Disposition, 2021)
